From the RepoRT retention time repository (doi:10.1016/j.scitotenv.2015.08.078)
Where a name gives a salt, the structure may show the parent alone.

Experiment: RP, Waters ACQUITY UPLC BEH C18, 100 × 2.1 mm, 1.7 µm, 0.3 mL/min, estimated dead time 0.73 min; A: water + 0.1% formic acid, pH 3; B: methanol + 0.1% formic acid, pH 3; gradient (min/%B) 0/10 14/90 16/90 18/10
Details: stereoisomer not certain

Row | Structure (SMILES) | LC retention time [min]
1 | CC(C)(C)C(O)C(Oc1ccc(-c2ccccc2)cc1)n1cncn1 (stereo not drawn) [Bitertanol] | 12
2 | O=C(Nc1ccccc1-c1ccc(Cl)cc1)c1cccnc1Cl [Boscalid] | 10.7
3 | CCC(C)n1c(=O)[nH]c(C)c(Br)c1=O (stereo not drawn) [Bromacil] | 7.96
4 | CC(C)(C)NCC(O)c1cc(Br)c(N)c(Br)c1 (stereo not drawn) [Brombuterol] | 5.9
5 | CN(Cc1cc(Br)cc(Br)c1N)C1CCCCC1 [Bromhexine] | 14.1
6 | Clc1ccc(C2(Cn3cncn3)CC(Br)CO2)c(Cl)c1 (stereo not drawn) [Bromuconazole I] | 10.6
7 | CCCC1OC2CC3C4CCC5=CC(=O)C=CC5(C)C4C(O)CC3(C)C2(C(=O)CO)O1 (stereo not drawn) [Budesonide] | 10.9
8 | COc1cc(OC)c(C(=O)CCCN2CCCC2)c(OC)c1 [Buflomedil HCl] | 5
9 | CCCCc1c(C)nc(NCC)nc1OS(=O)(=O)N(C)C [Bupirimate] | 11.2
10 | CC(C)N1C(=O)N(c2ccccc2)CSC1=NC(C)(C)C [Buprofezin] | 13.1
11 | CCC(C)Nc1c([N+](=O)[O-])cc(C(C)(C)C)cc1[N+](=O)[O-] (stereo not drawn) [Butralin] | 13.5
12 | CCOP(=O)(SC(C)CC)SC(C)CC (stereo not drawn) [Cadusafos] | 12.2
13 | CC(C)NCC(O)COc1cccc2[nH]c3ccccc3c12 (stereo not drawn) [Carazolol] | 6.24
14 | CNC(=O)Oc1cccc2ccccc12 [Carbaryl] | 7.91
15 | COC(=O)Nc1nc2ccccc2[nH]1 [Carbendazim] | 3.42
16 | CNC(=O)Oc1cccc2c1OC(C)(C)C2O (stereo not drawn) [Carbofuran-3-OH] | 4.08
17 | CNC(=O)Oc1cccc2c1OC(C)(C)C2 [Carbofuran] | 8.15
18 | CC1=C(C(=O)Nc2ccccc2)SCCO1 [Carboxin] | 7.77
19 | CCOC(=O)C(Cl)Cc1cc(-n2nc(C)n(C(F)F)c2=O)c(F)cc1Cl (stereo not drawn) [Carfentrazone-ethyl] | 11.4
20 | NC(C(=O)NC1C(=O)N2C(C(=O)O)=C(Cl)CSC12)c1ccccc1 (stereo not drawn) [Cefaclor] | 4.02
21 | CC1=C(C(=O)O)N2C(=O)C(NC(=O)C(N)c3ccc(O)cc3)C2SC1 (stereo not drawn) [Cefadroxil] | 4.91
22 | CC1=C(C(=O)O)N2C(=O)C(NC(=O)C(N)c3ccccc3)C2SC1 (stereo not drawn) [Cefalexin] | 3.25

Row | Structure (SMILES) | LC retention time [min]
23 | CON=C(C(=O)NC1C(=O)N2C(C(=O)O)=C(COC(C)=O)CSC12)c1csc(N)n1 (stereo not drawn) [Cefotaxime] | 4.41
24 | CON=C(C(=O)NC1C(=O)N2C(C(=O)[O-])=C(C[n+]3cccc4c3CCCC4)CSC12)c1csc(N)n1 (stereo not drawn) [Cefquinome] | 3.4
25 | CON=C(C(=O)NC1C(=O)N2C(C(=O)O)=C(COC(N)=O)CSC12)c1ccco1 (stereo not drawn) [Cefuroxime] | 9.51
26 | O=C(NC(CO)C(O)c1ccc([N+](=O)[O-])cc1)C(Cl)Cl (stereo not drawn) [Chloramphenicol] | 5.3
27 | CNC(=O)c1cc(Cl)cc(C)c1NC(=O)c1cc(Br)nn1-c1ncccc1Cl [Chlorantraniliprole] | 10.4
28 | CON(C)C(=O)Nc1ccc(Br)c(Cl)c1 [Chlorbromuron] | 10.1
29 | CCOP(=O)(OCC)OC(=CCl)c1ccc(Cl)cc1Cl [Chlorfenvinphos] | 12
30 | O=C(NC(=O)c1c(F)cccc1F)Nc1cc(Cl)c(Oc2ncc(C(F)(F)F)cc2Cl)c(Cl)c1 [Chlorfluazuron] | 13.9
31 | Nc1cnn(-c2ccccc2)c(=O)c1Cl [Chloridazon (Pyrazon)] | 4.82
32 | CCOC(=O)c1ccccc1S(=O)(=O)NC(=O)Nc1nc(Cl)cc(OC)n1 [Chlorimuron ethyl] | 8.65
33 | CCOP(=S)(OCC)Oc1nc(Cl)c(Cl)cc1Cl [Chloropyrifos] | 14.1
34 | CN(C)CCC(c1ccc(Cl)cc1)c1ccccn1 (stereo not drawn) [Chlorpheniramine] | 7.27
35 | CN(C)CCCN1c2ccccc2Sc2ccc(Cl)cc21 [Chlorpromazine] | 10.3
36 | COP(=S)(OC)Oc1nc(Cl)c(Cl)cc1Cl [Chlorpyriphos-methyl] | 12.1
37 | COc1nc(C)nc(NC(=O)NS(=O)(=O)c2ccccc2Cl)n1 [Chlorsulfuron] | 7.94
38 | CC(C)(C)NCC(O)c1ccc(N)c(C#N)c1 (stereo not drawn) [Cimbuterol] | 2.78
39 | CN=C(NC#N)NCCSCc1nc[nH]c1C [Cimetidine] | 2.28
40 | COCCOc1ccccc1S(=O)(=O)NC(=O)Nc1nc(OC)nc(OC)n1 [Cinosulfuron] | 6.25
41 | O=C(O)c1cn(C2CC2)c2cc(N3CCNCC3)c(F)cc2c1=O [Ciprofloxacin] | 3.93
42 | CCC1OC(=O)C(C)C(OC2CC(C)(OC)C(O)C(C)O2)C(C)C(OC2OC(C)CC(N(C)C)C2O)C(C)(OC)CC(C)C(=O)C(C)C(O)C1(C)O (stereo not drawn) [Clarithromycin] | 10.5
43 | CC(C)(C)NCC(O)c1cc(Cl)c(N)c(Cl)c1 (stereo not drawn) [Clenbuterol] | 5.15
44 | CCC(C)(C)NCC(O)c1cc(Cl)c(N)c(Cl)c1 (stereo not drawn) [Clenpenterol] | 6.19

Row | Structure (SMILES) | LC retention time [min]
45 | CC(C)NCC(O)c1cc(Cl)c(N)c(Cl)c1 (stereo not drawn) [Clenproperol] | 4.05
46 | CCCC1CC(C(=O)NC(C(C)Cl)C2OC(SC)C(O)C(O)C2O)N(C)C1 (stereo not drawn) [Clindamycin] | 7.04
47 | CCC(=O)OC1(C(=O)CCl)C(C)CC2C3CCC4=CC(=O)C=CC4(C)C3(F)C(O)CC21C (stereo not drawn) [Clobetasol propionate] | 11.4
48 | C#CCOC(=O)C(C)Oc1ccc(Oc2ncc(Cl)cc2F)cc1 (stereo not drawn) [Clodinafop-propargyl] | 11.5
49 | CC1(C)CON(Cc2ccccc2Cl)C1=O [Clomazone] | 9.54
50 | CCCCCC(C)OC(=O)COc1ccc(Cl)c2cccnc12 (stereo not drawn) [Cloquintocet - mexyl] | 13
51 | CNC(=N[N+](=O)[O-])NCc1cnc(Cl)s1 [Clothianidin] | 4.13
52 | CCOC(=O)C1C(OC(=O)c2ccccc2)CC2CCC1N2C (stereo not drawn) [Cocaethylene] | 6.53
53 | COC(=O)C1C(OC(=O)c2ccccc2)CC2CCC1N2C (stereo not drawn) [Cocaine] | 5.49
54 | CC12CCC(=O)C=C1CCC1C2C(O)CC2(C)C(C(=O)CO)CCC12 (stereo not drawn) [Corticosterone] | 9.37
55 | CC12CCC(=O)C=C1CCC1C2C(=O)CC2(C)C1CCC2(O)C(=O)CO (stereo not drawn) [Cortisone] | 8.13
56 | CCOP(=S)(OCC)Oc1ccc2c(C)c(Cl)c(=O)oc2c1 [Coumaphos] | 12.4
57 | CCNc1nc(Cl)nc(NC(C)(C)C#N)n1 [Cyanazine] | 7.05
58 | CCOP(=S)(Oc1ccc(C#N)cc1)c1ccccc1 (stereo not drawn) [Cyanofenphos] | 11.7
59 | CCSC(=O)N(CC)C1CCCCC1 [Cycloate] | 12.3
60 | CCCC(=NOCC)C1=C(O)CC(C2CCCSC2)CC1=O (stereo not drawn) [Cycloxydime] | 11.3
61 | CCNC(=O)NC(=O)C(C#N)=NOC [Cymoxanil] | 5.24
62 | CC(C1CC1)C(O)(Cn1cncn1)c1ccc(Cl)cc1 (stereo not drawn) [Cyproconazole I] | 10.5
63 | Cc1cc(C2CC2)nc(Nc2ccccc2)n1 [Cyprodinil] | 10.7
64 | Nc1nc(N)nc(NC2CC2)n1 [Cyromazine] | 1.45
65 | Nc1ccc(S(=O)(=O)c2ccc(N)cc2)cc1 [Dapsone] | 3.17
66 | CC(C)Nc1nc(N)nc(Cl)n1 [Deetheylatrazine] | 6.06

Row | Structure (SMILES) | LC retention time [min]
67 | CC(C)(C)Nc1nc(N)[nH]c(=O)n1 [Deethyl-2-hydroxy-terbuthylazine] | 3.24
68 | CSc1nc(N)nc(NC(C)(C)C)n1 [Deethylterbutryn] | 9.3
69 | CC1(C)C(C=C(Br)Br)C1C(=O)OC(C#N)c1cccc(Oc2ccccc2)c1 (stereo not drawn) [Deltamethrin] | 14
70 | CCSCCSP(=O)(OC)OC [Demeton-S-methyl] | 7.56
71 | CC1=CC2OC3C(O)CC(C)(C34CO4)C2(CO)C(O)C1=O (stereo not drawn) [Deoxynivalenol] | 2.83
72 | O=C1CN=C(c2ccccc2F)c2cc(Cl)ccc2N1 [Desalkyl-flurazepam] | 10
73 | CCNc1nc(N)nc(Cl)n1 [Desisopropylatrazine] | 4.38
74 | CNc1nc(NC(C)C)nc(SC)n1 [Desmetryn] | 8.78
75 | CC(C)c1cc(Oc2ccccc2)cc(C(C)C)c1NC(=S)NC(C)(C)C [Diafenthiuron] | 13.7
76 | CN1C(=O)CN=C(c2ccccc2)c2cc(Cl)ccc21 [Diazepam] | 10.9
77 | CCOP(=S)(OCC)Oc1cc(C)nc(C(C)C)n1 [Diazinon] | 12.5
78 | CCOP(=S)(OCC)Oc1ccc(Cl)cc1Cl [Dichlofenthion] | 13.4
79 | CN(C)S(=O)(=O)N(SC(F)(Cl)Cl)c1ccccc1 [Dichlofluanid] | 10.8
80 | C=CCN(CC=C)C(=O)C(Cl)Cl [Dichlormid] | 7.52
81 | COP(=O)(OC)OC=C(Cl)Cl [Dichlorvos] | 7.31
82 | Cc1onc(-c2c(Cl)cccc2Cl)c1C(=O)NC1C(=O)N2C1SC(C)(C)C2C(=O)O (stereo not drawn) [Dicloxacillin] | 10.4
83 | CC=C(C(=CC)c1ccc(O)cc1)c1ccc(O)cc1 [Dienestrol] | 11.1
84 | CCOc1ccc(NC(=O)OC(C)C)cc1OCC [Diethofencarb] | 9.88
85 | CCOC(=O)c1ccccc1C(=O)OCC [Diethyl phthalate] | 9.3
86 | CCN(CC)C(=O)N1CCN(C)CC1 [Diethylcarbamazine] | 2.52
87 | CCC(=C(CC)c1ccc(O)cc1)c1ccc(O)cc1 [Diethylstilbestrol] | 10.9
88 | O=C(NC(=O)c1c(F)cccc1F)Nc1ccc(Cl)cc1 [Diflubenzuron] | 11.2
